In US8765767B2, “Positive allosteric modulators of mGluR2” (Bristol-Myers Squibb Company, priority 2012, dated 2014):

target: T1, human mGluR2 (Homo sapiens, UniProt Q14416); assay: mGluR2 cAMP assay (HTRF) in HEK293 cells clonally expressing human mGluR2; type: cell-based; settings: HEK293 cells expressing human mGluR2, 1 μM forskolin, 1 μM LY-341495, 30 min
T1 construct: expressed in transfected cells; host or cells: HEK293 clonal line
Experimental: • Cell Culture. Clonally expressed human mGluR2 in HEK293 background was glutamate starved overnight in media without glutamine (GIBCO MEM 12360), containing 10% FBS, 1% penicillin streptomycin. • cAMP Measurement. On the day of the assay, media was removed, cells washed with PBS, cells harvested and pelleted by centrifugation. Cell pellets were resuspended in stimulation buffer without forskolin and counted. A solution of 1.25×10^6 cells/mL was prepared and dispensed to plates using a Combi liquid handler (Thermo). A standard curve was created using a top concentration of cAMP of 1 μM in the stimulation buffer, 1:3 dilutions over 14 points in the absence of cells. Plates were read by time-resolved fluorescence at […] and a ratio was calculated via in house software, (665 nM/618 nM)*10^4. In house software converted the fluorescence value ratios to units of cAMP concentration, which is then used to calculate % inhibition for each test compound. • MGluR2 cAMP Assay Materials and Methods. Compounds were added to white, standard volume 384 non-binding surface plates (Corning 3574). Cells were resuspended in stimulation buffer consisting of Hanks Balanced Salt Solution (14175-095) pH 7.0, 20 mM HEPES, 2.0 mM CaCl2, 5.0 mM MgCl2, and 1 mM IBMX (Sigma 15879), 1 μM forskolin, and 1 μM LY-341495 for 30 min. Buffer without forskolin was used as a negative control. Solutions of D2 and cryptate detection reagents from the CISBIO dynamic cAMP kit (62AM4PEJ) were diluted 1:40 in lysis buffer. Lysis buffer consisted of 50 mM Phosphate Buffer pH 7.0, 800 mM Potassium Fluoride, 0.2% BSA, and 1.0% Triton. Assay reaction was terminated by addition of detection reagents in lysis buffer. One hour later, plates were read on a PE Viewlux. Data was extracted, and concentration response curves generated by fitting the data to a standard 4 parameter logistic equation from which EC50 values were determined.

T1 sequence (Q14416 19-872): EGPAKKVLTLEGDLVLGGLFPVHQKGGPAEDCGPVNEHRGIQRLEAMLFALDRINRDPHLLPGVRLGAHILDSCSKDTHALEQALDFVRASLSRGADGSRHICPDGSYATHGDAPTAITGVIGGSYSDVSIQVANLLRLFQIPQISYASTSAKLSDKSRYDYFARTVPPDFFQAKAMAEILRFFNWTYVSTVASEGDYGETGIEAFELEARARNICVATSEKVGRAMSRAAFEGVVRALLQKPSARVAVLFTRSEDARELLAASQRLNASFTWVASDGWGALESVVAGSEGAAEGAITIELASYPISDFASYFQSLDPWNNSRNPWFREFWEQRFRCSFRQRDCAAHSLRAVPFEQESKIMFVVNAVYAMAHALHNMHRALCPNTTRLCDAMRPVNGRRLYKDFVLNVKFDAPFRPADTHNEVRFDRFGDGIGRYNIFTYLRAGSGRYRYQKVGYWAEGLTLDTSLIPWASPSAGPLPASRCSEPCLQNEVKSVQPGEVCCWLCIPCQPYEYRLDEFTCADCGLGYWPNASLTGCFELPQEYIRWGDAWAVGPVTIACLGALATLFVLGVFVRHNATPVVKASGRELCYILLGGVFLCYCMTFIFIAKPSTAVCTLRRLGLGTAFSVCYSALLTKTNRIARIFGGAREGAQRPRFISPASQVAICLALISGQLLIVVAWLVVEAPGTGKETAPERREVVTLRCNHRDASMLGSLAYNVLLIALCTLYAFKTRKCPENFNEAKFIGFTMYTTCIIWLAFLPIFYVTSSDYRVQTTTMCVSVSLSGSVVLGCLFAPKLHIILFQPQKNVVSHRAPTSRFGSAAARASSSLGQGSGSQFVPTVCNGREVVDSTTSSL

| EC50 [nM] | SMILES |
| --- | --- |
| 9 | Fc1ccc(C2CC2CNc2ccn3c(CC4CC4)nnc3c2Cl)cc1 (racemic) [Example 1, 8-chloro-3-(cyclopropylmethyl)-N-((2-(4-fluorophenyl)cyclopropyl)methyl)-[1,2,4]triazolo[4,3-a]pyridin-7-amine] |
| 5 | Clc1c(NC[C@@H]2CCC[C@H]2c2ccccc2)ccn2c(CC3CC3)nnc12 (racemic) [Example 3, (+/−)Trans-8-chloro-3-(cyclopropylmethyl)-N-((2-phenylcyclopentyl)methyl)-[1,2,4]triazolo[4,3-a]pyridin-7-amine] |
| 5 | Clc1c(NC[C@@H]2C[C@H]2c2ccccc2)ccn2c(CC3CC3)nnc12 (relative stereo) [Example 4, Trans-8-chloro-3-(cyclopropylmethyl)-N-((2-phenylcyclopropyl)methyl)-[1,2,4]triazolo[4,3-a]pyridin-7-amine] |
| 7 | COc1ccccc1[C@@H]1C[C@H]1CNc1ccn2c(CC3CC3)nnc2c1Cl (relative stereo) [Example 6, Trans-8-chloro-3-(cyclopropylmethyl)-N-((2-(2-methoxyphenyl)cyclopropyl)methyl)-[1,2,4]triazolo[4,3-a]pyridin-7-amine] |
| 6 | FC(F)Oc1ccccc1[C@@H]1C[C@H]1CNc1ccn2c(CC3CC3)nnc2c1Cl (relative stereo) [Example 7, Trans-8-chloro-3-(cyclopropylmethyl)-N-((2-(2-(difluoromethoxy)phenyl)cyclopropyl)methyl)-[1,2,4]triazolo[4,3-a]pyridin-7-amine] |
| 4 | FC(F)(F)Oc1ccccc1[C@@H]1C[C@H]1CNc1ccn2c(CC3CC3)nnc2c1Cl (relative stereo) [Example 9, Trans-8-chloro-3-(cyclopropylmethyl)-N-((2-(2-(trifluoromethoxy)phenyl)cyclopropyl)methyl)-[1,2,4]triazolo[4,3-a]pyridin-7-amine] |
| 12 | Clc1c(NC[C@H]2CCC[C@@H]2c2ccccc2)ccn2c(CC3CC3)nnc12 (single isomer, unassigned) [Example 45] |
| 5 | Clc1c(NC[C@@H]2CCC[C@H]2c2ccccc2)ccn2c(CC3CC3)nnc12 (single isomer, unassigned) [Example 46] |
| 24 | Fc1ccc([C@H]2C[C@@H]2CNc2ccn3c(CC(F)(F)F)cnc3c2C(F)(F)F)cc1 (stereo in doubt) [Example 31, N-(((1S,2S)-2-(4-Fluorophenyl)cyclopropyl)methyl)-3-(2,2,2-trifluoroethyl)-8-(trifluoromethyl)imidazo[1,2-a]pyridin-7-amine] |
| 44 | Fc1ccc([C@@H]2C[C@H]2CNc2ccn3c(CC(F)(F)F)cnc3c2C(F)(F)F)cc1 (stereo in doubt) [Example 32, N-(((1R,2R)-2-(4-Fluorophenyl)cyclopropyl)methyl)-3-(2,2,2-trifluoroethyl)-8-(trifluoromethyl)imidazo[1,2-a]pyridin-7-amine] |
| 26 | Clc1c(NC2CCC(c3ccccc3)C2)ccn2c(CC3CC3)nnc12 (centres unmarked) [Example 2, 8-Chloro-3-(cyclopropylmethyl)-N-(3-phenylcyclopentyl)-[1,2,4]triazolo[4,3-a]pyridin-7-amine] |
| 5 | Fc1ccc([C@H]2C[C@@H]2CNc2ccn3c(CC4CC4)nnc3c2Cl)cc1 [Example 5, 8-Chloro-3-(cyclopropylmethyl)-N-(((1S,2S)-2-(4-fluorophenyl)cyclopropyl)methyl)-[1,2,4]triazolo[4,3-a]pyridin-7-amine] |
| 12 | COc1cccc([C@H]2C[C@@H]2CNc2ccn3c(CC4CC4)nnc3c2Cl)c1 [Example 8, 8-Chloro-3-(cyclopropylmethyl)-N-(((1S,2S)-2-(3-methoxyphenyl)cyclopropyl)methyl)-[1,2,4]triazolo[4,3-a]pyridin-7-amine] |
| 6 | COc1c(F)ccc(F)c1[C@H]1C[C@@H]1CNc1ccn2c(CC3CC3)nnc2c1Cl [Example 10, 8-Chloro-3-(cyclopropylmethyl)-N-(((1S,2S)-2-(3,6-difluoro-2-methoxyphenyl)cyclopropyl)methyl)-[1,2,4]triazolo[4,3-a]pyridin-7-amine] |
| 12 | Clc1c(NC[C@H]2C[C@@H]2c2cccc3c2CCO3)ccn2c(CC3CC3)nnc12 [Example 11, 8-Chloro-3-(cyclopropylmethyl)-N-(((1S,2S)-2-(2,3-dihydrobenzofuran-4-yl)cyclopropyl)methyl)-[1,2,4]triazolo[4,3-a]pyridin-7-amine] |
| 83 | Fc1cnc(C2CC2CNc2ccn3c(CC4CC4)nnc3c2Cl)nc1 (centres unmarked) [Example 12, 8-Chloro-3-(cyclopropylmethyl)-N-((2-(5-fluoropyrimidin-2-yl)cyclopropyl)methyl)-[1,2,4]triazolo[4,3-a]pyridin-7-amine] |
| 102 | Fc1cnc(C2CC2CNc2ccn3c(CC4CC4)nnc3c2C(F)(F)F)nc1 (centres unmarked) [Example 13, 3-(Cyclopropylmethyl)-N-((2-(5-fluoropyrimidin-2-yl)cyclopropyl)methyl)-8-(trifluoromethyl)-[1,2,4]triazolo[4,3-a]pyridin-7-amine] |
| 55 | CC(Nc1ccn2c(CC3CC3)nnc2c1Cl)[C@@H]1C[C@H]1c1ccc(F)cc1 (stereo partly drawn) [Example 14, 8-Chloro-3-(cyclopropylmethyl)-N-(1-((1R,2R)-2-(4-fluorophenyl)cyclopropyl)ethyl)-[1,2,4]triazolo[4,3-a]pyridin-7-amine] |
| 31 | CC(Nc1ccn2c(CC3CC3)nnc2c1Cl)[C@H]1C[C@@H]1c1ccc(F)cc1 (stereo partly drawn) [Example 15, 8-Chloro-3-(cyclopropylmethyl)-N-(1-((1S,2S)-2-(4-fluorophenyl)cyclopropyl)ethyl)-[1,2,4]triazolo[4,3-a]pyridin-7-amine] |
| 46 | Fc1ccc(C2(CNc3ccn4c(CC5CC5)nnc4c3Cl)CC2)cc1 [Example 16, 8-chloro-3-(cyclopropylmethyl)-N-((1-(4-fluorophenyl)cyclopropyl)methyl)-[1,2,4]triazolo[4,3-a]pyridin-7-amine] |
| 6 | N#Cc1ccccc1C1CC1CNc1ccn2c(CC3CC3)nnc2c1Cl (centres unmarked) [Example 17, 2-(2-(((8-chloro-3-(cyclopropylmethyl)-[1,2,4]triazolo[4,3-a]pyridin-7-yl)amino)methyl)cyclopropyl)benzonitrile] |
| 244 | Clc1c(NCC2CC2c2ccncc2)ccn2c(CC3CC3)nnc12 (centres unmarked) [Example 18, 8-Chloro-3-(cyclopropylmethyl)-N-((2-(pyridin-4-yl)cyclopropyl)methyl)-[1,2,4]triazolo[4,3-a]pyridin-7-amine] |
| 367 | Clc1c(NCC2CC2c2cccnc2)ccn2c(CC3CC3)nnc12 (centres unmarked) [Example 19, 8-chloro-3-(cyclopropylmethyl)-N-((2-(pyridin-3-yl)cyclopropyl)methyl)-[1,2,4]triazolo[4,3-a]pyridin-7-amine] |
| 2 | Fc1ccc([C@H]2C[C@@H]2CNc2ccn3c(CC4CC4)nnc3c2C(F)(F)F)cc1 [Example 20, 3-(Cyclopropylmethyl)-N-(((1S,2S)-2-(4-fluorophenyl)cyclopropyl)methyl)-8-(trifluoromethyl)-[1,2,4]triazolo[4,3-a]pyridin-7-amine] |
| 2 | Fc1ccc([C@H]2C[C@@H]2CNc2ccn3c(CC(F)(F)F)nnc3c2C(F)(F)F)cc1 [Example 21, N-(((1S,2S)-2-(4-Fluorophenyl)cyclopropyl)methyl)-3-(2,2,2-trifluoroethyl)-8-(trifluoromethyl)-[1,2,4]triazolo[4,3-a]pyridin-7-amine] |
| 1 | Fc1ccc([C@@H]2C[C@H]2CNc2ccn3c(CC4CC4)nnc3c2C(F)(F)F)cc1 [Example 22, 3-(Cyclopropylmethyl)-N-(((1R,2R)-2-(4-fluorophenyl)cyclopropyl)methyl)-8-(trifluoromethyl)-[1,2,4]triazolo[4,3-a]pyridin-7-amine] |
| 41 | Fc1ccc(C2CC2CNc2ccn3c(CC(F)(F)F)cnc3c2C(F)(F)F)cc1 (centres unmarked) [Example 25, N-((2-(4-Fluorophenyl)cyclopropyl)methyl)-3-(2,2,2-trifluoroethyl)-8-(trifluoromethyl)imidazo[1,2-a]pyridin-7-amine] |
| 54 | N#Cc1c(NCC2CC2c2cccc(F)c2)ccn2c(CC(F)(F)F)cnc12 (centres unmarked) [Example 26, 7-(((2-(3-Fluorophenyl)cyclopropyl)methyl)amino)-3-(2,2,2-trifluoroethyl)imidazo[1,2-a]pyridine-8-carbonitrile] |
| 20 | COc1cccc(F)c1C1CC1CNc1ccn2c(CC(F)(F)F)cnc2c1C#N (centres unmarked) [Example 27, 7-(((2-(2-Fluoro-6-methoxyphenyl)cyclopropyl)methyl)amino)-3-(2,2,2-trifluoroethyl)imidazo[1,2-a]pyridine-8-carbonitrile] |
